The values that follow come from paper PMC8713283 (Journal of Medicinal Chemistry, 2021).

SMILES strings stand for the structures. Like-named read-outs stand apart in the source and are kept apart here.

For data set [1] the following is noted: human.
The nature of data set [2]: Log D(dec/w) shake flask partition coefficient. It is filed as physicochemical. Particulars: 1,9-decadiene and PBS pH 7.4 shake flask partition coefficient; for logD hydrocarbon water: 1,9-decadiene/PBS.
Another data set concerns P-gp (human MDR1). Kind of data set: in vitro. Particulars: dog; for Papp A→B at 5 µM / Papp B→A at 5 µM: MDCK-MDR1; for efflux ratio at 5 µM: MDCK-MDR1, Efflux ratio B-A/A-B, MDCK-MDR1, 5 µM, N = 2.
Data set [3] addresses T1, VHL (VCB, VHL:ElonginC:ElonginB) (Homo sapiens, UniProt P40337).
T1 construct: His6 (N, cleaved yes); made in house; host or cells: Escherichia coli
Nature of the data set: FP competition binding, binary binding to VHL.

[4] abbreviates: compound alone to VHL, FP competition with FAM-HIF-1α peptide, mean ± SEM, read-out: Kd binary.
For Plasma stability in this document: time not given here.

`COCC(=O)NCCCCCC(=O)N[C@H](C(=O)N1C[C@H](O)C[C@H]1C(=O)NCc1ccc(-c2scnc2C)cc1)C(C)(C)C` [Compound 1, (2S,4R)-4-Hydroxy-1-((S)-2-(6-(2-methoxyacetamido)hexanamido)-3,3-dimethylbutanoyl)-N-(4-(4-methylthiazol-5-yl)benzyl)pyrrolidine-2-carboxamide] came in with a Plasma stability in data set [1] of 126 ± 4%. Further, in data set [2], the logD hydrocarbon water is -2.2. Further, in the data set on P-gp (human MDR1), the Papp A→B at 5 µM turned out to be 0.5 ×10⁻⁶ cm/s, the Papp B→A at 5 µM is 1.7 ×10⁻⁶ cm/s and the efflux ratio at 5 µM amounted to 3.
On the same counts, the results for `CCCC(=O)NCCCCCC(=O)N[C@H](C(=O)N1C[C@H](O)C[C@H]1C(=O)NCc1ccc(-c2scnc2C)cc1)C(C)(C)C` [Compound 2, (2S,4R)-1-((S)-2-(6-Butyramidohexanamido)-3,3-dimethylbutanoyl)-4-hydroxy-N-(4-(4-methylthiazol-5-yl)benzyl)pyrrolidine-2-carboxamide] are 83 ± 5%, -2.2, 0.4 ×10⁻⁶ cm/s, 2.9 ×10⁻⁶ cm/s and 7.
As to `Cc1ncsc1-c1ccc(CNC(=O)[C@@H]2C[C@@H](O)CN2C(=O)[C@@H](NC(=O)CCCCCNC(=O)Cc2ccccc2)C(C)(C)C)cc1` [Compound 3, (2S,4R)-1-((S)-3,3-Dimethyl-2-(6-(2-phenylacetamido)hexanamido)butanoyl)-4-hydroxy-N-(4-(4-methylthiazol-5-yl)benzyl)pyrrolidine-2-carboxamide], in data set [1], the Plasma stability stood at 130 ± 3%. For the same compound, in data set [3] (setting [4]), the Kd worked out at 119 nM. Moreover, the logD hydrocarbon water in data set [2] was -1.5. In the data set with P-gp (human MDR1), the Papp A→B at 5 µM is 0.7 ×10⁻⁶ cm/s, the Papp B→A at 5 µM is 8.4 ×10⁻⁶ cm/s and the efflux ratio at 5 µM was 12.
Take `Cc1ncsc1-c1ccc(CNC(=O)[C@@H]2C[C@@H](O)CN2C(=O)[C@@H](NC(=O)CCCCCNC(=O)C2CCCCC2)C(C)(C)C)cc1` [Compound 4, (2S,4R)-1-((S)-2-(6-(Cyclohexanecarboxamido)hexanamido)-3,3-dimethylbutanoyl)-4-hydroxy-N-(4-(4-methylthiazol-5-yl)benzyl)pyrrolidine-2-carboxamide]: in data set [1], the Plasma stability is reported as 168 ± 20%. The compound further showed a logD hydrocarbon water in data set [2] of -1.4. Also, in the data set on P-gp (human MDR1), the apparent permeability from apical to basolateral (Papp A→B) at 5 µM stood at 0.3 ×10⁻⁶ cm/s, the basolateral-to-apical permeability (Papp B→A) at 5 µM is 10.3 ×10⁻⁶ cm/s and the efflux ratio at 5 µM was found to be 33.
In the same order, the values of `Cc1ncsc1-c1ccc(CNC(=O)[C@@H]2C[C@@H](O)CN2C(=O)[C@@H](NC(=O)CCCCCNC(=O)CC23CC4CC(CC(C4)C2)C3)C(C)(C)C)cc1` [Compound 5, (2S,4R)-1-((S)-2-(6-(2-(Adamantan-1-yl)acetamido)hexanamido)-3,3-dimethylbutanoyl)-4-hydroxy-N-(4-(4-methylthiazol-5-yl)benzyl)pyrrolidine-2-carboxamide] are 74 ± 8%, -0.2, 0.2 ×10⁻⁶ cm/s, 23.7 ×10⁻⁶ cm/s and 158.
Regarding `Cc1ncsc1-c1ccc(CNC(=O)[C@@H]2C[C@@H](O)CN2C(=O)[C@@H](NC(=O)CCCCCNC(=O)CC(c2ccccc2)c2ccccc2)C(C)(C)C)cc1` [Compound 6, (2S,4R)-1-((S)-2-(6-(3,3-Diphenylpropanamido)hexanamido)-3,3-dimethylbutanoyl)-4-hydroxy-N-(4-(4-methylthiazol-5-yl)benzyl)pyrrolidine-2-carboxamide], the Plasma stability in data set [1] was found to be 149 ± 9%. In addition, in data set [2], the logD hydrocarbon water is -0.3. Besides, in the data set on P-gp (human MDR1), the Papp A→B at 5 µM amounted to 0.1 ×10⁻⁶ cm/s, the Papp B→A at 5 µM amounted to 18.5 ×10⁻⁶ cm/s and the efflux ratio at 5 µM stood at 133.
`CCCCOc1ccc(-c2ccc(C(=O)NCCCCCC(=O)N[C@H](C(=O)N3C[C@H](O)C[C@H]3C(=O)NCc3ccc(-c4scnc4C)cc3)C(C)(C)C)cc2)cc1` [Compound 7, (2S,4R)-1-((S)-2-(6-(4′-Butoxy-[1,1′-biphenyl]-4-carboxamido)hexanamido)-3,3-dimethylbutanoyl)-4-hydroxy-N-(4-(4-methylthiazol-5-yl)benzyl)pyrrolidine-2-carboxamide] had a Plasma stability in data set [1] of 83 ± 14%. This compound came in with a logD hydrocarbon water in data set [2] of 1. The compound further gave a Papp B→A at 5 µM in the data set with P-gp (human MDR1) of 0.2 ×10⁻⁶ cm/s.
Consider `Cc1ncsc1-c1ccc(CNC(=O)[C@@H]2C[C@@H](O)CN2C(=O)[C@@H](NC(=O)CCCCCOC(=O)Cc2ccccc2)C(C)(C)C)cc1` [Compound 10, 6-(((S)-1-((2S,4R)-4-Hydroxy-2-((4-(4-methylthiazol-5-yl)benzyl)carbamoyl)pyrrolidin-1-yl)-3,3-dimethyl-1-oxobutan-2-yl)amino)-6-oxohexyl 2-phenylacetate], for which the Kd in data set [3] (setting [4]) came to 136 nM.
For `CCCCOc1ccc(-c2ccc(C(=O)OCCCCCC(=O)N[C@H](C(=O)N3C[C@H](O)C[C@H]3C(=O)NCc3ccc(-c4scnc4C)cc3)C(C)(C)C)cc2)cc1` [Compound 14, 6-(((S)-1-((2S,4R)-4-Hydroxy-2-((4-(4-methylthiazol-5-yl)benzyl)carbamoyl)pyrrolidin-1-yl)-3,3-dimethyl-1-oxobutan-2-yl)amino)-6-oxohexyl 4′-butoxy-[1,1′-biphenyl]-4-carboxylate], in data set [1], the Plasma stability stood at 119 ± 28%. For the same compound, the “LogD (dec/w)” value in data set [2] is “BLD^h”.
In data set [1], `Cc1ncsc1-c1ccc(CNC(=O)[C@@H]2C[C@@H](O)CN2C(=O)[C@@H](NC(=O)CCOCCNC(=O)Cc2ccccc2)C(C)(C)C)cc1` [Compound 15, (2S,4R)-1-((S)-3,3-Dimethyl-2-(3-(2-(2-phenylacetamido)ethoxy)propanamido)butanoyl)-4-hydroxy-N-(4-(4-methylthiazol-5-yl)benzyl)pyrrolidine-2-carboxamide] returned a Plasma stability of 103 ± 14%. Also, the Kd in data set [3] (setting [4]) is 171 ± 14 nM. For the same compound, the logD hydrocarbon water in data set [2] is -1.4. Moreover, in the data set on P-gp (human MDR1), the Papp A→B at 5 µM was 0.4 ×10⁻⁶ cm/s, the Papp B→A at 5 µM is 4.6 ×10⁻⁶ cm/s and the efflux ratio at 5 µM is 13.
With `Cc1ncsc1-c1ccc(CNC(=O)[C@@H]2C[C@@H](O)CN2C(=O)[C@@H](NC(=O)CCOCCOCCNC(=O)Cc2ccccc2)C(C)(C)C)cc1` [Compound 16, (2S,4R)-1-((S)-14-(tert-Butyl)-2,12-dioxo-1-phenyl-6,9-dioxa-3,13-diazapentadecan-15-oyl)-4-hydroxy-N-(4-(4-methylthiazol-5-yl)benzyl)pyrrolidine-2-carboxamide], the Plasma stability in data set [1] was found to be 151 ± 30%. The Kd in data set [3] (setting [4]) stood at 172 ± 17 nM. Moreover, the logD hydrocarbon water in data set [2] was -2.3. Besides, the Papp B→A at 5 µM in the data set on P-gp (human MDR1) was 3.3 ×10⁻⁶ cm/s.
On the same counts, the results for `Cc1ncsc1-c1ccc(CNC(=O)[C@@H]2C[C@@H](O)CN2C(=O)[C@@H](NC(=O)CCOCCOCCOCCNC(=O)Cc2ccccc2)C(C)(C)C)cc1` [Compound 17, (2S,4R)-1-((S)-17-(tert-Butyl)-2,15-dioxo-1-phenyl-6,9,12-trioxa-3,16-diazaoctadecan-18-oyl)-4-hydroxy-N-(4-(4-methylthiazol-5-yl)benzyl)pyrrolidine-2-carboxamide] are 133 ± 18%, 138 nM, -1.9 and 2 ×10⁻⁶ cm/s.
Regarding `Cc1ncsc1-c1ccc(CNC(=O)[C@@H]2C[C@@H](O)CN2C(=O)[C@@H](NC(=O)CCOCCOC(=O)Cc2ccccc2)C(C)(C)C)cc1` [Compound 18, 2-(3-(((S)-1-((2S,4R)-4-Hydroxy-2-((4-(4-methylthiazol-5-yl)benzyl)carbamoyl)pyrrolidin-1-yl)-3,3-dimethyl-1-oxobutan-2-yl)amino)-3-oxopropoxy)ethyl 2-phenylacetate], the Kd in data set [3] is 232 ± 47 nM; in data set [3] (setting [4]), approximately 200 nM.
Turning to `Cc1ncsc1-c1ccc(CNC(=O)[C@@H]2C[C@@H](O)CN2C(=O)[C@@H](NC(=O)CCOCCOCCOC(=O)Cc2ccccc2)C(C)(C)C)cc1` [Compound 19, 2-(2-(3-(((S)-1-((2S,4R)-4-Hydroxy-2-((4-(4-methylthiazol-5-yl)benzyl)carbamoyl)pyrrolidin-1-yl)-3,3-dimethyl-1-oxobutan-2-yl)amino)-3-oxopropoxy)ethoxy)ethyl 2-phenylacetate], the Kd in data set [3] (setting [4]) was found to be 197 ± 27 nM.
Same read-out and setting: the result for `Cc1ncsc1-c1ccc(CNC(=O)[C@@H]2C[C@@H](O)CN2C(=O)[C@@H](NC(=O)CCOCCOCCOCCOC(=O)Cc2ccccc2)C(C)(C)C)cc1` [Compound 20, (S)-14-((2S,4R)-4-Hydroxy-2-((4-(4-methylthiazol-5-yl)benzyl)carbamoyl)pyrrolidine-1-carbonyl)-15,15-dimethyl-12-oxo-3,6,9-trioxa-13-azahexadecyl 2-phenylacetate] reads 144 nM.
Regarding `C[C@H]1O[C@@H](O[C@H]2[C@@H](O)C[C@H](O[C@H]3[C@@H](O)C[C@H](O[C@H]4CC[C@@]5(C)[C@H](CC[C@@H]6[C@@H]5C[C@@H](O)[C@]5(C)[C@@H](C7=CC(=O)OC7)CC[C@]65O)C4)O[C@@H]3C)O[C@@H]2C)C[C@H](O)[C@@H]1O` [Digoxin, reference compound], in the data set with P-gp (human MDR1), the Papp A→B at 5 µM came to 0.8 ×10⁻⁶ cm/s, the Papp B→A at 5 µM was found to be 21.5 ×10⁻⁶ cm/s and the efflux ratio at 5 µM came out at 26.3.
In the same order, the values of `CC(C)NCC(O)COc1cccc2ccccc12` (stereo not shown) [Propranolol, reference compound] are 49.1 ×10⁻⁶ cm/s, 41.6 ×10⁻⁶ cm/s and 0.8.

One may read the Papp A→B as the apparent permeability from the apical to the basolateral side of a cell layer. As usually defined, the Papp B→A is how fast a substance crosses the layer from the basolateral side. By efflux ratio is commonly meant a quotient of directional permeabilities that is used to spot active efflux. For orientation: Kd means the concentration at which binding is half-saturated.
